The assay concerns the target (recombinant) catalytic domain of human Bub1 (amino acids 704-1085) (Homo sapiens (Human), UniProt O43683). Description: Bub1 kinase assay (TR-FRET). In kind it is biochemical. The settings on record: ATP 10 μM final, peptide substrate 1 μM final, 60 min at 22° C., read-out: Biological Assay: Bub1 kinase assay median IC50. A digest of the protocol: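 Readout was TR-FRET between a Eu-labeled antibody complex recognizing phosphoserine and streptavidin-XL665 on the biotinylated peptide, after EDTA stop and 1 h at 22° C. The kinase reaction ran for 60 min at 22° C. Values are means or medians of repeat tests, from 4-parameter fits normalized to enzyme-free and inhibitor-free controls.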
(In general: Time-resolved FRET reads energy transfer from a long-lived donor to a nearby acceptor.)

(recombinant) catalytic domain of human Bub1 (amino acids 704-1085), sequence (O43683 704-1085): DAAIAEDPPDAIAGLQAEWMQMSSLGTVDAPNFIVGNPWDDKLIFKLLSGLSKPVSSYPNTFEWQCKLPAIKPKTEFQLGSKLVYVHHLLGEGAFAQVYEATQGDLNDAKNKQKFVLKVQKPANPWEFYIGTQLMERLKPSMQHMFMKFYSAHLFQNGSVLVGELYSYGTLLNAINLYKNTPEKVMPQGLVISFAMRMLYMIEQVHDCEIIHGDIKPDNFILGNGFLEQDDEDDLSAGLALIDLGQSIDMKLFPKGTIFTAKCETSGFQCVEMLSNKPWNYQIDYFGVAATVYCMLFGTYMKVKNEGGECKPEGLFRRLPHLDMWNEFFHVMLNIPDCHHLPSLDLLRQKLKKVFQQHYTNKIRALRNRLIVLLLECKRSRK

In the case of `Cc1ccc(F)c(Nc2c(-c3ccncc3)[nH]c3c2C(=O)CC(C)(C)C3)c1` [Example 82, 3-[(2-fluoro-5-methylphenyl)amino]-6,6-dimethyl-2-(pyridin-4-yl)-1,5,6,7-tetrahydro-4H-indol-4-one], the IC50 (in general, the concentration that inhibits the measured activity by half) is 510 nM.

Consider `CCc1ccc(Nc2c(-c3ccncc3)[nH]c3c2C(=O)CC(C)(C)C3)cc1` [Example 83, 3-[(4-ethylphenyl)amino]-6,6-dimethyl-2-(pyridin-4-yl)-1,5,6,7-tetrahydro-4H-indol-4-one], for which the concentration for half-maximal inhibition (IC50) was 293 nM.

Take `CCc1ccccc1Nc1c(-c2ccncc2)[nH]c2c1C(=O)CC(C)(C)C2` [Example 84, 3-[(2-ethylphenyl)amino]-6,6-dimethyl-2-(pyridin-4-yl)-1,5,6,7-tetrahydro-4H-indol-4-one]: the half-maximal inhibitory concentration (IC50) was 127 nM.

In the case of `CC(C)c1cccc(Nc2c(-c3ccncc3)[nH]c3c2C(=O)CC(C)(C)C3)c1` [Example 85, 6,6-dimethyl-3-{[3-(propan-2-yl)phenyl]amino}-2-(pyridin-4-yl)-1,5,6,7-tetrahydro-4H-indol-4-one], the IC50 was determined as 73.5 nM.

Turning to `CC(C)c1ccc(Nc2c(-c3ccncc3)[nH]c3c2C(=O)CC(C)(C)C3)cc1` [Example 86, 6,6-dimethyl-3-{[4-(propan-2-yl)phenyl]amino}-2-(pyridin-4-yl)-1,5,6,7-tetrahydro-4H-indol-4-one], the 50% inhibitory concentration (IC50) amounted to 5460 nM.

For `CC1(C)CC(=O)c2c([nH]c(-c3ccncc3)c2Nc2cc(Cl)ccc2F)C1` [Example 87, 3-[(5-chloro-2-fluorophenyl)amino]-6,6-dimethyl-2-(pyridin-4-yl)-1,5,6,7-tetrahydro-4H-indol-4-one], the IC50 was determined as 1780 nM.

With `CC(C)c1ccccc1Nc1c(-c2ccncc2)[nH]c2c1C(=O)CC(C)(C)C2` [Example 88, 6,6-dimethyl-3-{[2-(propan-2-yl)phenyl]amino}-2-(pyridin-4-yl)-1,5,6,7-tetrahydro-4H-indol-4-one], the 50% inhibitory concentration (IC50) amounted to 2610 nM.

Take `CC1(C)CC(=O)c2c([nH]c(-c3ccncc3)c2Nc2cccc(O)c2)C1` [Example 89, 3-[(3-hydroxyphenyl)amino]-6,6-dimethyl-2-(pyridin-4-yl)-1,5,6,7-tetrahydro-4H-indol-4-one]: the IC50 came out at 288 nM.

On to `CC1(C)CC(=O)c2c([nH]c(-c3ccncc3)c2Nc2ccc([N+](=O)[O-])cc2)C1` [Example 90, 6,6-dimethyl-3-[(4-nitrophenyl)amino]-2-(pyridin-4-yl)-1,5,6,7-tetrahydro-4H-indol-4-one], for which the IC50 came out at 509 nM.

With `Cc1c(Cl)cccc1Nc1c(-c2ccncc2)[nH]c2c1C(=O)CC(C)(C)C2` [Example 91, 3-[(3-chloro-2-methylphenyl)amino]-6,6-dimethyl-2-(pyridin-4-yl)-1,5,6,7-tetrahydro-4H-indol-4-one], the IC50 was 101 nM.

For the compound `Cc1ccc(Nc2c(-c3ccncc3)[nH]c3c2C(=O)CC(C)(C)C3)cc1Cl` [Example 92, 3-[(3-chloro-4-methylphenyl)amino]-6,6-dimethyl-2-(pyridin-4-yl)-1,5,6,7-tetrahydro-4H-indol-4-one], the IC50 stood at 296 nM.

As for `Cc1ccc(Cl)cc1Nc1c(-c2ccncc2)[nH]c2c1C(=O)CC(C)(C)C2` [Example 93, 3-[(5-chloro-2-methylphenyl)amino]-6,6-dimethyl-2-(pyridin-4-yl)-1,5,6,7-tetrahydro-4H-indol-4-one], the IC50 is 7400 nM.

Consider `CC1(C)CC(=O)c2c([nH]c(-c3ccncc3)c2Nc2cccc(Cl)c2F)C1` [Example 94, 3-[(3-chloro-2-fluorophenyl)amino]-6,6-dimethyl-2-(pyridin-4-yl)-1,5,6,7-tetrahydro-4H-indol-4-one], for which the half-maximal inhibitory concentration (IC50) amounted to 114 nM.

Take `CC1(C)CC(=O)c2c([nH]c(-c3ccncc3)c2Nc2ccc(F)c(Cl)c2)C1` [Example 95, 3-[(3-chloro-4-fluorophenyl)amino]-6,6-dimethyl-2-(pyridin-4-yl)-1,5,6,7-tetrahydro-4H-indol-4-one]: the IC50 was 43.7 nM.

On to `CC(C)C(=O)Nc1cccc(Nc2c(-c3ccncc3)[nH]c3c2C(=O)CC(C)(C)C3)c1` [Example 97, N-(3-{[6,6-dimethyl-4-oxo-2-(pyridin-4-yl)-4,5,6,7-tetrahydro-1H-indol-3-yl]amino}phenyl)-2-methylpropanamide], for which the IC50 was 2980 nM.

Take `CCC(=O)Nc1cccc(Nc2c(-c3ccncc3)[nH]c3c2C(=O)CC(C)(C)C3)c1` [Example 98, N-(3-{[6,6-dimethyl-4-oxo-2-(pyridin-4-yl)-4,5,6,7-tetrahydro-1H-indol-3-yl]amino}phenyl)propanamide]: the IC50 stood at 1540 nM.

With `CNC(=O)c1cccc(Nc2c(-c3ccncc3)[nH]c3c2C(=O)CC(C)(C)C3)c1` [Example 99, 3-{[6,6-dimethyl-4-oxo-2-(pyridin-4-yl)-4,5,6,7-tetrahydro-1H-indol-3-yl]amino}-N-methylbenzamide], the IC50 is 2210 nM.

Take `CC1(C)CC(=O)c2c([nH]c(-c3ccncc3)c2Nc2ccc3[nH]ncc3c2)C1` [Example 100, 3-(1H-indazol-5-ylamino)-6,6-dimethyl-2-(pyridin-4-yl)-1,5,6,7-tetrahydro-4H-indol-4-one]: the half-maximal inhibitory concentration (IC50) came to 95.2 nM.

`CC1(C)CC(=O)c2c([nH]c(-c3ccncc3)c2Nc2cccc(C(N)=O)c2)C1` [Example 101, 3-{[6,6-dimethyl-4-oxo-2-(pyridin-4-yl)-4,5,6,7-tetrahydro-1H-indol-3-yl]amino}benzamide]: the IC50 was 507 nM.

As for `CCCC(=O)Nc1cccc(Nc2c(-c3ccncc3)[nH]c3c2C(=O)CC(C)(C)C3)c1` [Example 102, N-(3-{[6,6-dimethyl-4-oxo-2-(pyridin-4-yl)-4,5,6,7-tetrahydro-1H-indol-3-yl]amino}phenyl)butanamide], the IC50 amounted to 954 nM.

Regarding `CCOc1cccc(Nc2c(-c3ccncc3)[nH]c3c2C(=O)CC(C)(C)C3)c1` [Example 104, 3-[(3-ethoxyphenyl)amino]-6,6-dimethyl-2-(pyridin-4-yl)-1,5,6,7-tetrahydro-4H-indol-4-one], the IC50 stood at 524 nM.

Take `CC1(C)CC(=O)c2c([nH]c(-c3ccncc3)c2Nc2cccc(OCCO)c2)C1` [Example 106, 3-{[3-(2-hydroxyethoxy)phenyl]amino}-6,6-dimethyl-2-(pyridin-4-yl)-1,5,6,7-tetrahydro-4H-indol-4-one]: the IC50 was 5350 nM.

For the compound `CC1(C)CC(=O)c2c([nH]c(-c3ccncc3)c2Nc2cccc(OC(F)(F)F)c2)C1` [Example 107, 6,6-dimethyl-2-(pyridin-4-yl)-3-{[3-(trifluoromethoxy)phenyl]amino}-1,5,6,7-tetrahydro-4H-indol-4-one], the IC50 turned out to be 164 nM.

Take `CCCOc1cccc(Nc2c(-c3ccncc3)[nH]c3c2C(=O)CC(C)(C)C3)c1` [Example 108, 6,6-dimethyl-3-[(3-propoxyphenyl)amino]-2-(pyridin-4-yl)-1,5,6,7-tetrahydro-4H-indol-4-one]: the IC50 is 104 nM.

Take `CC(=O)Nc1cccc(Nc2c(-c3ccncc3)[nH]c3c2C(=O)CC(C)(C)C3)c1` [Example 109, N-(3-{[6,6-dimethyl-4-oxo-2-(pyridin-4-yl)-4,5,6,7-tetrahydro-1H-indol-3-yl]amino}phenyl)acetamide]: the IC50 came to 4560 nM.

`COc1cc(Nc2c(-c3ccncc3)[nH]c3c2C(=O)CC(C)(C)C3)ccc1F` [Example 110, 3-[(4-fluoro-3-methoxyphenyl)amino]-6,6-dimethyl-2-(pyridin-4-yl)-1,5,6,7-tetrahydro-4H-indol-4-one]: the IC50 came out at 235 nM.

Regarding `CC1(C)CC(=O)c2c([nH]c(-c3ccncc3)c2Nc2ccc(F)c(CO)c2)C1` [Example 111, 3-{[4-fluoro-3-(hydroxymethyl)phenyl]amino}-6,6-dimethyl-2-(pyridin-4-yl)-1,5,6,7-tetrahydro-4H-indol-4-one], the IC50 was found to be 2630 nM.

Consider `CC(O)c1cccc(Nc2c(-c3ccncc3)[nH]c3c2C(=O)CC(C)(C)C3)c1` (stereo not shown) [Example 112, 3-{[3-(1-hydroxyethyl)phenyl]amino}-6,6-dimethyl-2-(pyridin-4-yl)-1,5,6,7-tetrahydro-4H-indol-4-one], for which the half-maximal inhibitory concentration (IC50) was found to be 3480 nM.

`CC(=O)c1cccc(Nc2c(-c3ccncc3)[nH]c3c2C(=O)CC(C)(C)C3)c1` [Example 113, 3-[(3-acetylphenyl)amino]-6,6-dimethyl-2-(pyridin-4-yl)-1,5,6,7-tetrahydro-4H-indol-4-one]: the IC50 worked out at 174 nM.

For the compound `CC1(C)CC(=O)c2c([nH]c(-c3ccncc3)c2Nc2cccc(C(C)(C)C)c2)C1` [Example 114, 3-[(3-tert-butylphenyl)amino]-6,6-dimethyl-2-(pyridin-4-yl)-1,5,6,7-tetrahydro-4H-indol-4-one], the IC50 stood at 8640 nM.

For the compound `CC1(C)CC(=O)c2c([nH]c(-c3ccncc3)c2Nc2cccc(OC(F)F)c2)C1` [Example 117, 3-{[3-(difluoromethoxy)phenyl]amino}-6,6-dimethyl-2-(pyridin-4-yl)-1,5,6.7-tetrahydro-4H-indol-4-one], the IC50 worked out at 175 nM.

As to `CC1(C)CC(=O)c2c([nH]c(-c3ccncc3)c2Nc2cccc(C(=O)OC(C)(C)C)c2)C1` [Example 118, tert-butyl 3-{[6,6-dimethyl-4-oxo-2-(pyridin-4-yl)-4,5,6,7-tetrahydro-1H-indol-3-yl]amino}benzoate], the IC50 was found to be 457 nM.

Turning to `CC1(C)CC(=O)c2c([nH]c(-c3ccncc3)c2Nc2cccc(C3OCCO3)c2)C1` [Example 119, 3-{[3-(1,3-dioxolan-2-yl)phenyl]amino}-6,6-dimethyl-2-(pyridin-4-yl)-1,5,6,7-tetrahydro-4H-indol-4-one], the IC50 is 2340 nM.

Take `COc1cc(F)ccc1Nc1c(-c2ccncc2)[nH]c2c1C(=O)CC(C)(C)C2` [Example 121, 3-[(4-fluoro-2-methoxyphenyl)amino]-6,6-dimethyl-2-(pyridin-4-yl)-1,5,6,7-tetrahydro-4H-indol-4-one]: the IC50 was 323 nM.
